Patent US20230414599A1, “NICOTINAMIDE, NICOTINAMIDE PRECURSORS AND NICOTINAMIDE METABOLITES AND COMPOSITIONS THEREOF FOR REDUCING THE TIME TO RESOLUTION OF SYMPTOMS IN PATIENTS WITH COVID-19 AND OTHER VIRAL INFECTIONS” (CONARIS RESEARCH INSTITUTE AG, priority 2020, published 2023)
Where two headings read alike, the source gives them in different places.

Tested on: COVID-19
Details: 500 mg IR + 500 mg CICR-NAM daily; for Ability to perform normal activities, complaint scale 0-6, mean change / Ability to perform normal activities, complaint scale 0-6, median change: week 6 - baseline
[1] = week 4, current or former smokers, n = 75
[2] = week 4, patients with cough and fever, n = 15
[3] = week 4, patients with cough, n = 106
[4] = week 4, patients with fever, n = 21
[5] = week 4, ≥1 risk factor for severe COVID-19, n = 117
[6] = BMI ≥30.0 or type 2 diabetes, n = 27
[7] = current or former smokers, n = 75
[8] = patients with cough and fever, n = 15
[9] = ≥1 risk factor for severe COVID-19, n = 117
[10] = week 6, BMI ≥30.0 or type 2 diabetes, n = 27
[11] = week 6, current or former smokers, n = 75
[12] = week 6, patients with cough and fever, n = 15
[13] = week 6, patients with cough, n = 106
[14] = week 6, patients with fever, n = 21
[15] = week 6, ≥1 risk factor for severe COVID-19, n = 117

NC(=O)c1cccnc1 [Nicotinamide, nicotinamide]
Ability to perform normal activities worse vs baseline, % of patients [1]: 6.67% | Ability to perform normal activities worse vs baseline, patients [1]: 5 | Ability to perform normal activities, complaint scale 0-6, mean [1]: 0.920 | Ability to perform normal activities, complaint scale 0-6, median [1]: 0.000 | Reduced physical performance constant vs baseline, % of patients [1]: 38.67% | Reduced physical performance constant vs baseline, patients [1]: 29 | Reduced physical performance improved vs baseline, % of patients [1]: 56.00% | Reduced physical performance improved vs baseline, patients [1]: 42 | Reduced physical performance worse vs baseline, % of patients [1]: 5.33% | Reduced physical performance worse vs baseline, patients [1]: 4 | Ability to perform normal activities, complaint scale 0-6, mean [2]: 1.200 | Ability to perform normal activities, complaint scale 0-6, median [2]: 0.0 | Ability to perform normal activities, complaint scale 0-6, mean [3]: 0.736 | Ability to perform normal activities, complaint scale 0-6, median [3]: 0.0 | Ability to perform normal activities, complaint scale 0-6, mean [4]: 1.048 | Ability to perform normal activities, complaint scale 0-6, median [4]: 0.0 | Ability to perform normal activities constant vs baseline, % of patients [5]: 8.55% | Ability to perform normal activities constant vs baseline, patients [5]: 10 | Ability to perform normal activities improved vs baseline, % of patients [5]: 84.62% | Ability to perform normal activities improved vs baseline, patients [5]: 99 | Ability to perform normal activities worse vs baseline, % of patients [5]: 6.84% | Ability to perform normal activities worse vs baseline, patients [5]: 8 | Ability to perform normal activities, complaint scale 0-6, mean [5]: 0.880 | Ability to perform normal activities, complaint scale 0-6, median [5]: 0.0 | Reduced physical performance constant vs baseline, % of patients [5]: 47.86% | Reduced physical performance constant vs baseline, patients [5]: 56 | Reduced physical performance improved vs baseline, % of patients [5]: 47.01% | Reduced physical performance improved vs baseline, patients [5]: 55 | Reduced physical performance worse vs baseline, % of patients [5]: 5.13% | Reduced physical performance worse vs baseline, patients [5]: 6 | Ability to perform normal activities, complaint scale 0-6, mean change [6]: −1.741 | Ability to perform normal activities, complaint scale 0-6, median change [6]: −2.000 | Ability to perform normal activities, complaint scale 0-6, mean change [7]: −2.587 | Ability to perform normal activities, complaint scale 0-6, median change [7]: −3.000 | Ability to perform normal activities, complaint scale 0-6, mean change [8]: −2.933 | Ability to perform normal activities, complaint scale 0-6, median change [8]: −3.0 | Ability to perform normal activities, complaint scale 0-6, mean change (patients with cough, n = 106): −2.255 | Ability to perform normal activities, complaint scale 0-6, median change (patients with cough, n = 106): −2.0 | Ability to perform normal activities, complaint scale 0-6, mean change (patients with fever, n = 21): −3.238 | Ability to perform normal activities, complaint scale 0-6, median change (patients with fever, n = 21): −4.0 | Ability to perform normal activities, complaint scale 0-6, mean change [9]: −2.419 | Ability to perform normal activities, complaint scale 0-6, median change [9]: −3.0 | Ability to perform normal activities constant vs baseline, % of patients [10]: 11.11% | Ability to perform normal activities constant vs baseline, patients [10]: 3 | Ability to perform normal activities improved vs baseline, % of patients [10]: 74.07% | Ability to perform normal activities improved vs baseline, patients [10]: 20 | Ability to perform normal activities worse vs baseline, % of patients [10]: 14.81% | Ability to perform normal activities worse vs baseline, patients [10]: 4 | Ability to perform normal activities, complaint scale 0-6, mean [10]: 1.296 | Ability to perform normal activities, complaint scale 0-6, median [10]: 1.000 | Cough complaint scale 0-6, mean [10]: 0.370 | Cough complaint scale 0-6, median [10]: 0.000 | Ability to perform normal activities constant vs baseline, % of patients [11]: 12.00% | Ability to perform normal activities constant vs baseline, patients [11]: 9 | Ability to perform normal activities improved vs baseline, % of patients [11]: 82.67% | Ability to perform normal activities improved vs baseline, patients [11]: 62 | Ability to perform normal activities worse vs baseline, % of patients [11]: 5.33% | Ability to perform normal activities worse vs baseline, patients [11]: 4 | Ability to perform normal activities, complaint scale 0-6, mean [11]: 0.787 | Ability to perform normal activities, complaint scale 0-6, median [11]: 0.000 | Presence of cough constant vs baseline, % of patients [11]: 54.67% | Presence of cough constant vs baseline, patients [11]: 41 | Presence of cough improved vs baseline, % of patients [11]: 42.67% | Presence of cough improved vs baseline, patients [11]: 32 | Presence of cough worse vs baseline, % of patients [11]: 2.67% | Presence of cough worse vs baseline, patients [11]: 2 | Reduced physical performance constant vs baseline, % of patients [11]: 38.67% | Reduced physical performance constant vs baseline, patients [11]: 29 | Reduced physical performance improved vs baseline, % of patients [11]: 56.00% | Reduced physical performance improved vs baseline, patients [11]: 42 | Reduced physical performance worse vs baseline, % of patients [11]: 5.33% | Reduced physical performance worse vs baseline, patients [11]: 4 | Ability to perform normal activities, complaint scale 0-6, mean [12]: 1.067 | Ability to perform normal activities, complaint scale 0-6, median [12]: 0.0 | Ability to perform normal activities, complaint scale 0-6, mean [13]: 0.660 | Ability to perform normal activities, complaint scale 0-6, median [13]: 0.0 | Ability to perform normal activities, complaint scale 0-6, mean [14]: 0.762 | Ability to perform normal activities, complaint scale 0-6, median [14]: 0.0 | Ability to perform normal activities constant vs baseline, % of patients [15]: 11.97% | Ability to perform normal activities constant vs baseline, patients [15]: 14 | Ability to perform normal activities improved vs baseline, % of patients [15]: 82.05% | Ability to perform normal activities improved vs baseline, patients [15]: 96 | Ability to perform normal activities worse vs baseline, % of patients [15]: 5.98% | Ability to perform normal activities worse vs baseline, patients [15]: 7 | Ability to perform normal activities, complaint scale 0-6, mean [15]: 0.769 | Ability to perform normal activities, complaint scale 0-6, median [15]: 0.0 | Fatigue constant vs baseline, % of patients [15]: 38.46% | Fatigue constant vs baseline, patients [15]: 45 | Fatigue improved vs baseline, % of patients [15]: 59.83% | Fatigue improved vs baseline, patients [15]: 70 | Fatigue worse vs baseline, % of patients [15]: 1.71% | Fatigue worse vs baseline, patients [15]: 2 | Reduced physical performance constant vs baseline, % of patients [15]: 40.17% | Reduced physical performance constant vs baseline, patients [15]: 47 | Reduced physical performance improved vs baseline, % of patients [15]: 54.70% | Reduced physical performance improved vs baseline, patients [15]: 64 | Reduced physical performance worse vs baseline, % of patients [15]: 5.13% | Reduced physical performance worse vs baseline, patients [15]: 6
